Values of other authors as cited in article PMC9076486 (RSC Advances, 2019).

Tested on: superoxide anions
Conditions: pH 7.4; for IC50: read-out: IC50 (SOD activity)

Compound	k cat (SOD activity)	IC50 [µM]
CuZn–SOD: native copper–zinc superoxide dismutase enzyme, value from ref. 42	430 10^6 M^−1 s^−1	0.01
[Cu+2].[O-][Cl+3]([O-])([O-])[O-].[O-][Cl+3]([O-])([O-])[O-] [Cu(ClO4)2, copper(II) perchlorate]	2.7 10^6 M^−1 s^−1	1.1
